Drawing on patent US10023592B2, “Bromodomain inhibitors” (Celgene Quanticel Research, Inc., priority 2013, dated 2018), this text covers IC50 for 30 compounds.

The assay has as its target BRD4(BD1) (Homo sapiens (Human), UniProt O60885). As to the kind of experiment: In vitro enzyme inhibition assay (BRD4 AlphaScreen). In kind it is binding. The protocol:
His-tagged BRD4 was cloned, expressed and purified to homogeneity. […] BRD4 binding and inhibition was assessed by monitoring the interaction of biotinylated H4-tetraacetyl peptide (AnaSpec, H4K5/8/12/16(Ac), biotin-labeled) with the target using the AlphaScreen technology (Life Technologies). […] After 20 min incubation at room temp, Alpha streptavidin donor beads and Nickel Chelate acceptor beads were added to a final concentration of 5 μg/mL.
The ability of the compounds disclosed herein to inhibit BRD4 activity was quantified and the respective IC50 value was determined.

[1] abbreviates: in vitro enzyme inhibition assay.

By IC50 is commonly meant the concentration needed to halve the response being measured. High values mean lower potency, low ones higher potency.

Structures are written as SMILES. Where only a bound is given, the exact number is not on record here.

Turning to `Cn1cc(-c2cccc(NS(C)(=O)=O)c2)c2cnccc2c1=O` [Example 125, N-[3-(2-methyl-1-oxo-2,6-naphthyridin-4-yl)phenyl] methanesulfonamide], the IC50 (class symbols A/B/C) was 500 to 5000 nM. Still for that read-out and setting: the result for `COc1ccc(-c2cn(C)c(=O)c3cnccc23)cc1S(N)(=O)=O` [Example 56, 2-methoxy-5-(2-methyl-1-oxo-2,7-naphthyridin-4-yl) benzenesulfonamide] reads > 5000 nM. As for `[2H]C([2H])([2H])n1cc(-c2cc(S(=O)(=O)CC)ccc2OCC)c(C)cc1=O` [Example 456, 5-(2-ethoxy-5-ethylsulfonylphenyl)-1-(^2H3)methyl-4-methylpyridin-2-one], the IC50 under setting [1] was < 500 nM. As to `Cc1cc(-c2cc(OCC3(C)COC3)cc(S(C)(=O)=O)c2)cn(C)c1=O` [Example 329, 1,3-dimethyl-5-[3-[(3-methyloxetan-3-yl)methoxy]-5-methylsulfonylphenyl]pyridin-2-one], the IC50 under setting [1] is < 500 nM. The same measure, in the same setting: for `Cc1cc(-c2cc(NS(C)(=O)=O)ccc2Oc2ccc(F)cc2F)cn(C2CCC2)c1=O` [Example 484, N-[3-(1-cyclobutyl-5-methyl-6-oxopyridin-3-yl)-4-(2,4-difluorophenoxy)phenyl]methanesulfonamide] the value was < 500 nM; for `CCS(=O)(=O)c1ccc(OCC2CC2)c(-c2cc(N3CCCC3)c(=O)n(C)c2)c1` [Example 282, 5-[2-(cyclopropylmethoxy)-5-ethylsulfonylphenyl]-1-methyl-3-pyrrolidin-1-ylpyridin-2-one], 500 to 5000 nM. `COc1ccc(-c2cn(C)c(=O)c(N)n2)cc1NS(C)(=O)=O` [Example 106, N-[5-(6-amino-4-methyl-5-oxopyrazin-2-yl)-2-methoxyphenyl]methanesulfonamide]: the IC50 (class symbols A/B/C) was > 5000 nM. Regarding `Cc1cc(-c2cc(CS(C)(=O)=O)ccc2Oc2ccc(F)cc2F)cn(CCO)c1=O` [Example 406, 5-[2-(2,4-difluorophenoxy)-5-(methylsulfonylmethyl)phenyl]-1-(2-hydroxyethyl)-3-methylpyridin-2-one], under setting [1], the IC50 was < 500 nM. On the same count and under the same terms, for `CCS(=O)(=O)c1ccc(NCC2CC2)c(-c2cn(C)c(=O)c3cncn23)c1` [Example 375, 5-[2-(cyclopropylmethylamino)-5-ethylsulfonylphenyl]-7-methylimidazo[1,5-a]pyrazin-8-one] the value was < 500 nM; for `Cn1cc(-c2cc(S(C)(=O)=O)ccc2OCC2CC2)c2ncncc2c1=O` [Example 231, 8-[2-(cyclopropylmethoxy)-5-methylsulfonylphenyl]-6-methylpyrido[4,3-d]pyrimidin-5-one], 500 to 5000 nM. Under setting [1], `CCS(=O)(=O)c1ccc(OC)c(-c2cc(O)c(=O)n(C)c2)c1` [Example 461, 5-(5-ethylsulfonyl-2-methoxyphenyl)-3-hydroxy-1-methylpyridin-2-one] returned an IC50 of 500 to 5000 nM. As for `COc1ccccc1-c1cn(C)c(=O)c2ccccc12` [Example 4, 4-(2-methoxyphenyl)-2-methylisoquinolin-1-one], for the setting “class symbols A/B/C”, the IC50 is > 5000 nM.

Turning to `CCCc1cnc(NS(=O)(=O)CC)nc1-c1cn(C)c(=O)c2ccccc12` [Example 306, N-[4-(2-methyl-1-oxoisoquinolin-4-yl)-5-propylpyrimidin-2-yl] ethanesulfonamide], the IC50 under setting [1] is < 500 nM. With `Cn1cc(-c2ccc3c(c2)NCCO3)c2ccccc2c1=O` [Example 19, 4-(3,4-dihydro-2H-1,4-benzoxazin-6-yl)-2-methylisoquinolin-1-one], the IC50 (class symbols A/B/C) fell in the range of 500 to 5000 nM. Regarding `Cn1cc(-c2cc(OCC3CC3)cc(S(C)(=O)=O)c2)c2ccccc2c1=O` [Example 345, 4-[3-(cyclopropylmethoxy)-5-methylsulfonylphenyl]-2-methylisoquinolin-1-one], the IC50 under setting [1] was < 500 nM. As to `Cc1cc(=O)n(C)nc1-c1cc(S(C)(=O)=O)ccc1OCC1CC1` [Example 137, 6-[2-(cyclopropylmethoxy)-5-methylsulfonylphenyl]-2,5-dimethylpyridazin-3-one], the IC50 (class symbols A/B/C) lay in the range of 500 to 5000 nM. Where the note is “class symbols A/B/C”, `Cc1cc(-c2cccc(NS(C)(=O)=O)c2)cn(C)c1=O` [Example 96, N-[3-(1,5-dimethyl-6-oxopyridin-3-yl)phenyl]methanesulfonamide] registered an IC50 of 500 to 5000 nM. `Cc1cc(-c2cc(S(C)(=O)=O)ccc2OCCC(F)(F)F)cn(C)c1=O` [Example 405, 1,3-dimethyl-5-[5-methylsulfonyl-2-(3,3,3-trifluoropropoxy)phenyl]pyridin-2-one]: under setting [1], the concentration for half-maximal inhibition (IC50) was < 500 nM.

Under setting [1], `Cc1cc(=O)n(C)cc1-c1cc(S(C)(=O)=O)ccc1NCC1CC1` [Example 422, 5-[2-(cyclopropylmethylamino)-5-methylsulfonylphenyl]-1,4-dimethylpyridin-2-one] came in with a 50% inhibitory concentration (IC50) of 500 to 5000 nM.

Take `Cn1cc(-c2cccc(S(C)(=O)=O)c2)cc(N)c1=O` [Example 107, 3-amino-1-methyl-5-(3-methylsulfonylphenyl)pyridin-2-one]: the IC50 (class symbols A/B/C) was > 5000 nM. For `CCc1ccccc1-c1sc(NS(=O)(=O)CC)cc1-c1ccc(=O)n(C)c1` [Example 435, N-[5-(2-ethylphenyl)-4-(1-methyl-6-oxopyridin-3-yl)thiophen-2-yl] ethanesulfonamide], the IC50 under setting [1] was > 5000 nM.

In the case of `Cc1cc(-c2cc(OCc3cccnc3)cc(S(C)(=O)=O)c2)cn(C)c1=O` [Example 338, 1,3-dimethyl-5-[3-methylsulfonyl-5-(pyridin-3-ylmethoxy)phenyl]pyridin-2-one], the concentration for half-maximal inhibition (IC50) under setting [1] is < 500 nM. Still for that read-out and setting: the result for `CCCCc1cnc(S(C)(=O)=O)nc1-c1cc(C)c(=O)n(C(C)C)c1` [Example 508, 5-(5-butyl-2-methylsulfonylpyrimidin-4-yl)-3-methyl-1-propan-2-ylpyridin-2-one] reads < 500 nM; that for `CC(=O)Nc1nc(-c2cccc(NS(C)(=O)=O)c2)cn(C)c1=O` [Example 478, N-[6-[3-(methanesulfonamido)phenyl]-4-methyl-3-oxopyrazin-2-yl]acetamide], > 5000 nM. The same measure, in the same setting: for `Cn1cc(-c2cccc(NS(C)(=O)=O)c2)cc(OCc2ccccc2)c1=O` [Example 471, N-[3-(1-methyl-6-oxo-5-phenylmethoxypyridin-3-yl)phenyl]methanesulfonamide] the value was > 5000 nM; for `Cc1cc(-c2cc(S(C)(=O)=O)ccc2NC2CCOC2)cn(C)c1=O` (stereo not drawn) [Example 425, 1,3-dimethyl-5-[5-methylsulfonyl-2-(oxolan-3-ylamino)phenyl]pyridin-2-one], < 500 nM. On the same count and under the same terms, for `CCS(=O)(=O)Nc1ccc(Oc2ccc(F)cc2F)c(-c2cc(NC)c(=O)n(C)c2)c1` [Example 410, N-[4-(2,4-difluorophenoxy)-3-[1-methyl-5-(methylamino)-6-oxopyridin-3-yl]phenyl]ethanesulfonamide] the value was < 500 nM. For the compound `CC(C)c1cc(-c2nc(S(C)(=O)=O)ncc2Oc2ccc(F)cc2F)cn(C)c1=O` [Example 273, 5-[5-(2,4-difluorophenoxy)-2-methylsulfonylpyrimidin-4-yl]-1-methyl-3-propan-2-ylpyridin-2-one], the IC50 under setting [1] lay within 500 to 5000 nM.

Take `C#Cc1cc(-c2cc(S(C)(=O)=O)ccc2OCC2CC2)cn(C)c1=O` [Example 285, 5-[2-(cyclopropylmethoxy)-5-methylsulfonylphenyl]-3-ethynyl-1-methylpyridin-2-one]: the IC50 under setting [1] is 500 to 5000 nM.

As to `CCCCc1cnc(S(C)(=O)=O)nc1-c1cc(C)c(=O)n(C)c1` [Example 305, 5-(5-butyl-2-methylsulfonylpyrimidin-4-yl)-1,3-dimethylpyridin-2-one], the IC50 under setting [1] is < 500 nM.
